We go through 19 compounds from the OPERA property sets (Mansouri et al. 2018).

The structures appear in SMILES notation.

Usually logP stands for the decadic logarithm of the partition coefficient of the neutral form, usually between octanol and water. A lower logP goes with lower lipophilicity. Consider `CC(C)=NN(c1ccccc1)P(=O)(N1CC1)N1CC1`, for which the logP is 0.57.

`O=[N+]([O-])c1ccc(C=NNP(=O)(N2CC2)N2CC2)cc1` yielded a logP of 0.45.

Take `CN(N=Cc1ccc([N+](=O)[O-])cc1)P(=O)(N1CC1)N1CC1`: the logP was found to be 0.51.

As for `CC(C)=NNP(=O)(N1CC1)N1CC1`, the lipophilicity (logP) was 0.45.

`O=P(NN=Cc1ccc(Cl)cc1)(N1CC1)N1CC1` showed a logP of 0.13.

Consider `O=P(NN=Cc1ccc(F)cc1)(N1CC1)N1CC1`, for which the logP was determined as 0.45.

On to `COc1ccc(C=NN(c2ccccc2)P(=O)(N2CC2)N2CC2)cc1`, for which the logP turned out to be 0.57.

With `O=P(N1CC1)(N1CC1)N(N=Cc1ccc(F)cc1)c1ccccc1`, the log partition coefficient (logP) is 0.56.

For the compound `CN(N=Cc1ccc(Br)cc1)P(=O)(N1CC1)N1CC1`, the logP amounted to 0.31.

Compound `O=[N+]([O-])c1ccc(C=NN(c2ccccc2)P(=O)(N2CC2)N2CC2)cc1` had a logP of 0.57.

As for `COc1ccc(C=NNP(=O)(N2CC2)N2CC2)cc1`, the logP turned out to be 0.42.

`O=P(N1CC1)(N1CC1)N(N=Cc1ccc(Cl)cc1)c1ccccc1` had a logP of 0.35.

In turn, `CN(N=Cc1ccc(F)cc1)P(=O)(N1CC1)N1CC1` returned a logP of 0.48.

Turning to `O=P(N1CC1)(N1CC1)N(N=Cc1ccccc1)c1ccccc1`, the logP turned out to be 0.56.

For the compound `CN(N=Cc1ccccc1)P(=O)(N1CC1)N1CC1`, the logP was determined as 0.51.

As for `O=P(NN=Cc1ccccc1)(N1CC1)N1CC1`, the logP came out at 0.48.

With `CC(C)=NN(C)P(=O)(N1CC1)N1CC1`, the logP was 0.51.

`O=[N+]([O-])c1ccc(N(N=Cc2ccccc2)P(=O)(N2CC2)N2CC2)cc1` displayed a logP of 0.57.

`COc1ccc(C=NN(C)P(=O)(N2CC2)N2CC2)cc1`: the logP was found to be 0.47.
